# Where a name gives a salt, the structure may show the parent alone. Read-outs that look alike come from different tables or passages of the source.
# Tests used:
# [1] = test system: clinical isolates of MRSA; assay: MIC by broth serial-dilution against 48 clinical isolates of MRSA; type: cell-based, methicillin-resistant Staphylococcus aureus; details: Staphylococcus aureus; for MIC: MRSA
# Procedure: The tests against 48 clinical isolates of MRSA from dairy farms in 4 different provinces in China[37] were conducted in triplicate, using broth serial-dilution method in 96-well plates according to CLSI reference methods. Briefly, EDT and tiamulin fumarate used as referent drug were dissolved in 25% dimethyl sulfoxide (DMSO) to a solution with concentration of 64 μg/mL. The obtained 100 μL solutions were then added into the first column of the 96-well plate, and diluted to the tenth well with serial twofold dilutions. The last two wells were used as positive controls. The 100 μL bacterial suspension was diluted in MHB to give a final organism density of to 10^5 ~ 10^6 colony-forming unit (CFU) per 1 mL and added to all the wells, followed by incubating at 37 °C for 24 h. […] The results were expressed as an average of the MICs obtained from three independent experiments.
# MRSA-337371 = assay: microbe, parasite or virus in culture; type: cell-based, methicillin-resistant Staphylococcus aureus; details: for MIC: Staphylococcus aureus, MRSA
# Procedure: We performed resistance induction tests on EDT and tiamulin which was used as a referent drug. […] Finally, MRSA was cultured for 30 generations with the same procedure. At the 31st generation, drugs were removed until 40th generation and MICs were determined in each generation.
# [2] = Cytotoxicity assay (CCK-8), HepG2; type: cell-based; details: human, HepG2 cells, read-out: cell viability
# Procedure: Cytotoxicity of EDT and tiamulin was studied against human hepatocellular carcinoma cells (HepG2) and human embryonic kidney 293T (HEK293T) cells following a protocol as published in our earlier reports[41],[42]. Cells were counted and inoculated into 96-well plates with approximately10^5 cells density for incubating 24 h at 37 °C. […] The same procedure was repeated three times. The percentages of cell viability were calculated by the formula: Cell viability (%) = [Asample ‒ Anegative]/[Apositve ‒ Anegative] × 100%.
smiles,measurement,setting,value
"C=C[C@]1(C)C[C@@H](OC(=O)CSCCN(CC)CC)[C@]2(C)[C@H](C)CC[C@]3(CCC(=O)[C@H]32)[C@@H](C)[C@@H]1O [tiamulin, Tiamulin fumarate, reference compound]",MIC,"[1]; range over 48 clinical isolates of MRSA, read-out: MIC values against 48 strains",0.125 to 1 µg/mL
same,MIC,"[1]; strain CX1, read-out: MIC",0.5 µg/mL
same,MIC,"[1]; strain CX2, read-out: MIC",0.5 µg/mL
same,MIC,"[1]; strain CX5, read-out: MIC",0.5 µg/mL
same,MIC,"[1]; strain CX6, read-out: MIC",0.5 µg/mL
same,MIC,"[1]; strain CX7, read-out: MIC",0.5 µg/mL
same,MIC,"[1]; strain CX9, read-out: MIC",1 µg/mL
same,MIC,"[1]; strain HG1, read-out: MIC",0.25 µg/mL
same,MIC,"[1]; strain HG2, read-out: MIC",0.5 µg/mL
same,MIC,"[1]; strain HG3, read-out: MIC",0.5 µg/mL
same,MIC,"[1]; strain HG4, read-out: MIC",0.5 µg/mL
same,MIC,"[1]; strain HG5, read-out: MIC",0.5 µg/mL
same,MIC,"[1]; strain HG6, read-out: MIC",0.5 µg/mL
same,MIC,"[1]; strain HG7, read-out: MIC",0.5 µg/mL
same,MIC,"[1]; strain QY4, read-out: MIC",0.5 µg/mL
same,MIC,"[1]; strain QY5, read-out: MIC",0.5 µg/mL
same,MIC,"[1]; strain QY6, read-out: MIC",0.5 µg/mL
same,MIC,"[1]; strain QY8, read-out: MIC",0.5 µg/mL
same,MIC,"[1]; strain QY10, read-out: MIC",0.5 µg/mL
same,MIC,"[1]; strain SH3, read-out: MIC",0.5 µg/mL
same,MIC,"[1]; strain SH4, read-out: MIC",0.5 µg/mL
same,MIC,"[1]; strain SH6, read-out: MIC",0.5 µg/mL
same,MIC,"[1]; strain SH7, read-out: MIC",0.5 µg/mL
same,MIC,"[1]; strain SH8, read-out: MIC",0.25 µg/mL
same,MIC,"[1]; strain SH9, read-out: MIC",0.5 µg/mL
same,MIC,"[1]; strain SH10, read-out: MIC",0.5 µg/mL
same,MIC,"[1]; strain SH11, read-out: MIC",0.5 µg/mL
same,MIC,"[1]; strain SH12, read-out: MIC",0.5 µg/mL
same,MIC,"[1]; strain SH13, read-out: MIC",0.5 µg/mL
same,MIC,"[1]; strain SH14, read-out: MIC",0.125 µg/mL
same,MIC,"[1]; strain SH15, read-out: MIC",0.5 µg/mL
same,MIC,"[1]; strain SX5, read-out: MIC",0.5 µg/mL
same,MIC,"[1]; strain SX6, read-out: MIC",1 µg/mL
same,MIC,"[1]; strain SX7, read-out: MIC",0.5 µg/mL
same,MIC,"[1]; strain SX8, read-out: MIC",0.5 µg/mL
same,MIC,"[1]; strain SX9, read-out: MIC",0.5 µg/mL
same,MIC,"[1]; strain SX10, read-out: MIC",0.5 µg/mL
same,MIC,"[1]; strain SX16, read-out: MIC",1 µg/mL
same,MIC,"[1]; strain SX17, read-out: MIC",0.5 µg/mL
same,MIC,"[1]; strain SX18, read-out: MIC",0.5 µg/mL
same,MIC,"[1]; strain ZY1, read-out: MIC",0.5 µg/mL
same,MIC,"[1]; strain ZY2, read-out: MIC",0.5 µg/mL
same,MIC,"[1]; strain ZY3, read-out: MIC",0.25 µg/mL
same,MIC,"[1]; strain ZY4, read-out: MIC",0.5 µg/mL
same,MIC,"[1]; strain ZY5, read-out: MIC",0.5 µg/mL
same,MIC,"[1]; strain ZY6, read-out: MIC",1 µg/mL
same,MIC,"[1]; strain ZY7, read-out: MIC",0.5 µg/mL
same,MIC,"[1]; strain ZY8, read-out: MIC",1 µg/mL
same,MIC,"[1]; strain ZY9, read-out: MIC",0.25 µg/mL
same,inhibition at 0.0625 µg/mL,"[1]; at 0.0625 µg/mL, 48 clinical isolates of MRSA, read-out: strains inhibited",0%
same,MIC,"MRSA-337371; 24 h, read-out: MIC in the resistance development study, day 1",0.5 µg/mL
same,MIC,"MRSA-337371; 48 h, read-out: MIC in the resistance development study, day 2",0.5 µg/mL
same,MIC,"MRSA-337371; 72 h, read-out: MIC in the resistance development study, day 3",0.5 µg/mL
same,MIC,"MRSA-337371; 96 h, read-out: MIC in the resistance development study, day 4",0.5 µg/mL
same,MIC,"MRSA-337371; 120 h, read-out: MIC in the resistance development study, day 5",0.5 µg/mL
same,MIC,"MRSA-337371; 144 h, read-out: MIC in the resistance development study, day 6",0.5 µg/mL
same,MIC,"MRSA-337371; 168 h, read-out: MIC in the resistance development study, day 7",1 µg/mL
same,MIC,"MRSA-337371; 192 h, read-out: MIC in the resistance development study, day 8",1 µg/mL
same,MIC,"MRSA-337371; 216 h, read-out: MIC in the resistance development study, day 9",1 µg/mL
same,MIC,"MRSA-337371; 240 h, read-out: MIC in the resistance development study, day 10",1 µg/mL
same,MIC,"MRSA-337371; 264 h, read-out: MIC in the resistance development study, day 11",1 µg/mL
same,MIC,"MRSA-337371; 288 h, read-out: MIC in the resistance development study, day 12",1 µg/mL
same,MIC,"MRSA-337371; 312 h, read-out: MIC in the resistance development study, day 13",1 µg/mL
same,MIC,"MRSA-337371; 336 h, read-out: MIC in the resistance development study, day 14",2 µg/mL
same,MIC,"MRSA-337371; 360 h, read-out: MIC in the resistance development study, day 15",1 µg/mL
same,MIC,"MRSA-337371; 384 h, read-out: MIC in the resistance development study, day 16",2 µg/mL
same,MIC,"MRSA-337371; 408 h, read-out: MIC in the resistance development study, day 17",2 µg/mL
same,MIC,"MRSA-337371; 432 h, read-out: MIC in the resistance development study, day 18",2 µg/mL
same,MIC,"MRSA-337371; 456 h, read-out: MIC in the resistance development study, day 19",2 µg/mL
same,MIC,"MRSA-337371; 480 h, read-out: MIC in the resistance development study, day 20",4 µg/mL
same,MIC,"MRSA-337371; 504 h, read-out: MIC in the resistance development study, day 21",2 µg/mL
same,MIC,"MRSA-337371; 528 h, read-out: MIC in the resistance development study, day 22",4 µg/mL
same,MIC,"MRSA-337371; 552 h, read-out: MIC in the resistance development study, day 23",4 µg/mL
same,MIC,"MRSA-337371; 576 h, read-out: MIC in the resistance development study, day 24",4 µg/mL
same,MIC,"MRSA-337371; 600 h, read-out: MIC in the resistance development study, day 25",4 µg/mL
same,MIC,"MRSA-337371; 624 h, read-out: MIC in the resistance development study, day 26",4 µg/mL
same,MIC,"MRSA-337371; 648 h, read-out: MIC in the resistance development study, day 27",4 µg/mL
same,MIC,"MRSA-337371; 672 h, read-out: MIC in the resistance development study, day 28",4 µg/mL
same,MIC,"MRSA-337371; 696 h, read-out: MIC in the resistance development study, day 29",4 µg/mL
same,MIC,"MRSA-337371; read-out: MIC in the resistance development study, day 30",4 µg/mL
same,MIC,"MRSA-337371; read-out: MIC in the resistance development study, day 31, drugs removed",4 µg/mL
same,MIC,"MRSA-337371; read-out: MIC in the resistance development study, day 32, drugs removed",4 µg/mL
same,MIC,"MRSA-337371; read-out: MIC in the resistance development study, day 33, drugs removed",2 µg/mL
same,MIC,"MRSA-337371; read-out: MIC in the resistance development study, day 34, drugs removed",2 µg/mL
same,MIC,"MRSA-337371; read-out: MIC in the resistance development study, day 35, drugs removed",2 µg/mL
same,increase in the MIC values,MRSA-337371; after 7 generations of continuous culture of MRSA,twofold
same,sensitivity of MRSA after removing drugs,MRSA-337371; after removing drugs and culturing for additional 10 generations,recovered the initial sensitivity
same,increase in the MIC values,MRSA-337371; at 22 generations,eightfold
same,"viability at 6 h, 100 µM","[2]; HepG2, 100 μM",60.8%
same,"viability at 6 h, 200 µM","[2]; HepG2, 200 μM",55.6%

# Source: paper PMC10502144, “Anti-methicillin-resistant Staphylococcus aureus activity and safety evaluation of 14-O-[(5-ethoxycarbonyl-4,6-dimethylpyrimidine-2-yl) thioacetyl] mutilin (EDT)” (Scientific Reports, 2023)
